Measured values from patent US20050053916A1, “Diagnostic for long term response of HBV carrier to 3TC therapy” (priority 2002, published 2005).
“And” between values parts separate entries of the source, which are not always exact repeats. Identical values can stand only once. “Also recorded” adds a separate entry of the source.

Legend:
HBV [1] = experiment: Virological response (serum HBV DNA, HBV Monitor PCR) in chronic hepatitis B patients on long-term lamivudine therapy; format: in vivo, human; conditions: for virologic breakthrough observed, number of patients: of 12 breakthrough patients
From the text: (§1) All patients had detectable HBV DNA by polymerase chain reaction (PCR) assay (HBV Monitor, Roche Diagnostics, Inc.) and by solution hybridization assay (Abbott Diagnostics, Inc.) at baseline and for at least 6 months before therapy. […] Patients were negative for hepatitis C, hepatitis D, or human immunodeficiency virus antibodies, and there were no evidences of autoimmune hepatitis.
(§2) All patients were followed with monthly clinical examination and routine laboratory tests.
Serum HBV DNA for the evaluation of response to treatment was analyzed by the HBV Monitor™ assay (Roche Diagnostic, Inc.) with a detection limit of 100 copies/ml, and a solution hybridization assay (Abbott Laboratories, Inc.) with a detection limit of 10 pg/ml.
(§3) Definitions—“Responder” patients were classified as attaining both a biochemical and virological response: normalization of ALT values and the absence of serum HBV DNA by Monitor™ PCR in two consecutive determinations during treatment. “Breakthrough” was defined as those patients in who HBV DNA reappeared by Monitor™ PCR assay after an initial antiviral response (serum HBV DNA negative by Monitor™ PCR), eventually associated with an increase of ALT levels greater than 1.5× the upper limit of normal (35 IU/L).

[2] = test system: serum alanine transaminase (ALT); experiment: Biochemical response (serum ALT) in chronic hepatitis B patients on long-term lamivudine therapy; format: in vivo, human; conditions: for No. of patients with ALT elevation / No. of patients with Sustained ALT Normalization: outcome summary
Procedure: as §1, with “hepatitis. None of the patients were treated with interferon or other antiviral agents, such as famciclovir or adefovir dipovoxil, during the study or within six months before the beginning of lamivudine treatment.” for “hepatitis.”
as §2
Blood test—An aliquot of serum was collected at each visit and stored at −70° C. until used for analysis.
HBV serologic markers were tested by commercial enzyme immunoassay kits: HBeAg and anti-HBeAg (DiaSorin, Italy), and HBsAg (Abbott Laboratories, Inc.). Serum samples were also evaluated for routine biochemical markers of liver disease, including ALT.
as §3

HBV [3] = conditions: after 16 weeks or more of treatment; HBeAg positive candidates; cited from earlier work
[4] = after a minimum of 27 months of therapy, 26 patients
[5] = individual breakthrough (BK) patients, row order Pt #4, 5, 8, 10, 12, 13, 16, 17, 19, 20, 24, 26, 27-53 months of treatment
[6] = individual non-responder (NR) patients, row order Pt #3, 6, 9, 11, 15, 21, 22, 33-47 months of treatment

Compound: Nc1ccn([C@@H]2CS[C@H](CO)O2)c(=O)n1 [lamivudine]
- virologic breakthrough observed, number of patients (HBV [1]; after 12 months of therapy): 6 patients
- patients who were breakthroughs (HBV [1]; [4]): 46%
- patients who were non-responders (HBV [1]; [4]): 27%
- patients who were responders (HBV [1]; [4]): 27%
- virologic breakthrough observed, number of patients (HBV [1]; between 12 and 18 months of therapy): 5 patients
- patients in whom HBV DNA became undetectable (HBV [1]; by week 24 of treatment, 19 of 26 patients, lamivudine orally 100 mg daily): 73%
- HBV DNA (log10/ml), treatment (last follow up) (HBV [1]; [5]): 5.00 log10/ml and 5.31 log10/ml and 5.17 log10/ml and 6.20 log10/ml and 5.67 log10/ml and 6.62 log10/ml and 5.88 log10/ml and 4.54 log10/ml and 6.08 log10/ml and 7.02 log10/ml and 6.18 log10/ml
- HBV DNA (log10/ml), treatment (last follow up) (HBV [1]; [6]): 4.25 log10/ml and 4.55 log10/ml and 6.11 log10/ml (2×) and 7.28 log10/ml and 5.19 log10/ml and 6.19 log10/ml
- HBV DNA (log10/ml), treatment (last follow up) (HBV [1]; individual responder (R) patients, row order Pt #1, 2, 7, 14, 18, 23, 25, 27-50 months of treatment): ud* (undetectable, limit of detection 1000 copies/ml); also recorded: ud (undetectable, limit of detection 1000 copies/ml)
- No. of Patients (%), Breakthrough (HBV [1]; outcome summary (26 pts)): 12 (46%)
- No. of Patients (%), Non-responder (HBV [1]; outcome summary (26 pts)): 7 (27%)
- No. of Patients (%), Responder (HBV [1]; outcome summary (26 pts)): 7 (27%)
- patients in whom serum ALT normalized ([2]; by week 24 of treatment, 13 of 26 patients, lamivudine orally 100 mg daily): 50%
- ALT (IU/L), treatment (last follow up) [2, 5]: 9 IU/L (2×) and 5 IU/L (3×) and 21 IU/L and 75 IU/L and 81 IU/L and 51 IU/L and 80 IU/L and 2 IU/L and 4 IU/L
- ALT (IU/L), treatment (last follow up) [2, 6]: 68 IU/L and 37 IU/L and 4 IU/L (2×) and 66 IU/L and 74 IU/L and 85 IU/L
- ALT (IU/L), treatment (last follow up) ([2]; individual responder (R) patients, row order Pt #1, 2, 7, 14, 18, 23, 25, 27-50 months of treatment, upper limit of normal 35 IU/L): 30 IU/L and 24 IU/L (2×) and 20 IU/L and 18 IU/L and 21 IU/L and 16 IU/L
- No. of patients with ALT elevation ([2]; Breakthrough group (12 pts)): 5
- No. of patients with Sustained ALT Normalization ([2]; Breakthrough group (12 pts)): 7
- No. of patients with ALT elevation ([2]; Non-responder group (7 pts)): 7
- No. of patients with Sustained ALT Normalization ([2]; Non-responder group (7 pts)): 0
- No. of patients with ALT elevation ([2]; Responder group (7 pts)): 7
- No. of patients with Sustained ALT Normalization ([2]; Responder group (7 pts)): 0

Compound: interferon-alpha
- individuals who lose serum HBeAg (HBV [3]): about 40%
